SMILES strings stand for the structures. Where “and” joins values, the source holds several entries; their conditions need not be identical. Equal entries are not always repeated. Calls of active or inactive are those of the source.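 Rule for the calls: active = compounds giving half or more protection of infected cells from virus-caused growth loss, again on retest; inactive = the rest.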 Where a SMILES comes first, the peptide text is derived from it. A value given as a limit tells only on which side of the number the result lay.

One may read the EC50 as the concentration giving half of the maximal effect. By IC50 is commonly meant the midpoint of a concentration-inhibition curve.

This experiment relates to CEM cells HIV-1 protection, formazan growth assay. The experiment can be described thus: NCI AIDS Antiviral Assay. To be noted: for IC50: measured here: growth of uninfected CEM cells. The method, boiled down: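 Steps: treat uninfected and HIV-1-infected human CEM cells at five drug levels; quantify growth by soluble formazan; retest any compound reaching 50% protection; classify actives from the retest.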

With `CCc1nc2ccc(N=Nc3c(O)ccc4ccccc34)cc2[nH]1`, the EC50 is above 58.9 µM and the IC50 amounted to 24.5 µM.

In the case of `O=C1Cc2c(-c3ccc(Cl)cc3)cc(-c3ccccc3)nc2-c2ccccc2N1`, the EC50 was above 100 µM and the IC50 was determined as 28.8 µM.

In the case of `COc1ccc(CCn2ccc(C)n2)c(OC)c1`, the EC50 was above 200 µM and the half-inhibitory concentration (IC50) was above 200 µM.

In the case of `CC(C)(CCl)NC(=O)c1cccc(C(=O)NC(C)(C)CCl)n1`, the EC50 was above 28.8 µM and the IC50 is above 28.8 µM.

As to `COc1c2c(nc3ccccc13)-c1cc(C(CC(=O)OC(C)(C)C)C(=O)OC(C)C)c(CO)c(=O)n1C2` (stereo unspecified), the EC50 was above 28.8 µM and the IC50 was 0.479 µM.

Turning to `CC(C)(NC(=O)C(C)(C)NC(=O)OCc1ccccc1)C(=O)O` (HELM PEPTIDE1{[O=C(OCc1ccccc1)[*:2]].[Aib].[Aib]}$$$$V2.0), the EC50 was above 200 µM and the IC50 was above 200 µM.

On to `O=C(OCc1c(-c2ccccc2)nn(-c2ccccc2)c1COC(=O)Oc1ccccc1)Oc1ccccc1`, for which the EC50 was above 200 µM and the IC50 is above 200 µM.

In the case of `Cc1cn(C2CC3C(COC(C)N3O)O2)c(=O)[nH]c1=O` (stereo unspecified), the EC50 was above 200 µM and the IC50 is above 200 µM.

With `COc1ccc(N=C(Nc2ccc(OC)cc2)C(=Nc2ccc(OC)cc2)Nc2ccc(OC)cc2)cc1`, the EC50 was above 200 µM and the IC50 was 28.2 µM.

As to `C1=C(c2ccccc2)SC(N2CCCCC2)S1` (stereo unspecified), the outcome was inactive.

Consider `OCCN1CCN(C2=Nc3cccnc3Nc3cscc32)CC1`, for which the EC50 is above 200 µM and the IC50 was above 200 µM.

Take `COc1ccc(N2C(=O)C3c4[nH]c5ccccc5c4C4CC(C)(C)CC(C)(C)C4C3C2=O)cc1` (stereo unspecified): the EC50 is above 4.37 µM and the IC50 is above 4.37 µM.

On to `Cc1cccc(NC(=O)Nc2cccc(Cl)c2Cl)n1`, for which the EC50 is above 200 µM and the IC50 is above 200 µM.

For `O=C1Nc2cc(Cl)ccc2C(=O)N2CCC[C@@H]12`, the EC50 was above 200 µM and the IC50 is above 200 µM.

Consider `O=C(/C=C/c1ccccc1)/C=C/c1ccccc1`, for which the outcome was inactive.

As to `CCOC(=O)N/N=C(/N)Cc1ccc(Cl)cc1`, the EC50 is above 200 µM and the concentration for half-maximal inhibition (IC50) is 120 µM.

For `COC1/C=C/OC2(C)Oc3c(C)c(O)c4c(O)c(cc(OCC(=O)N(C)CC(=O)OC(C)(C)C)c4c3C2=O)NC(=O)/C(C)=C/C=C/C(C)C(O)C(C)C(O)C(C)C(OC(C)=O)C1C` (stereo unspecified), the EC50 is above 200 µM and the IC50 came to 28.2 µM.

For the compound `CC(=O)OCC1OC(OC(C)=O)C(On2nnc3c(-c4ccccc4)c(C)nn32)C(OC(C)=O)C1OC(C)=O` (stereo unspecified), the EC50 was above 60.3 µM and the IC50 was 31.6 µM.

For the compound `NC(=O)CNC(=O)c1ccccc1SC(=O)OCCBr`, the 50% effective concentration (EC50) was 7.08 µM and the IC50 was above 200 µM.

Regarding `N#C/C(=C\c1cc(O)c(O)c(O)c1)C(=O)NCCCCCNC(=O)/C(C#N)=C/c1cc(O)c(O)c(O)c1`, the EC50 is above 200 µM and the half-maximal inhibitory concentration (IC50) is 38 µM.

In the case of `CNC(=O)OCc1c(COC(=O)NC)c2n(c1C)-c1ccc(OC)cc1CCC2`, the EC50 was above 123 µM and the half-maximal inhibitory concentration (IC50) stood at 2.14 µM.

Regarding `CC1=C(C(=O)Nc2ccccc2C)C(/C=C/c2ccccc2)C(C(=O)Nc2ccccc2C)=C(C)N1`, the result was inactive.

On to `CC1CC(C)CC(NC2=NCCO2)C1` (stereo unspecified), for which the EC50 is above 200 µM and the concentration for half-maximal inhibition (IC50) is above 200 µM.

For the compound `CCOC(=O)CC(NC(=O)c1[nH]cnc1/N=N/N(C)C)C(=O)OCC` (stereo unspecified), the EC50 is above 708 µM and the IC50 was above 708 µM.

On to `CC(SCCCCCCCCCCSC(C)C(=O)O)C(=O)O` (stereo unspecified), for which the EC50 is above 141 µM and the IC50 is above 141 µM.

In the case of `COc1ccc2c(C(=O)O)cc3cc(OC)c(OC)cc3c2c1`, the result was inactive.

As for `COC(=O)c1nn2c(=O)[nH]c3ccccc3c2c1C(=O)OC`, the EC50 is above 562 µM and the IC50 was found to be 331 µM.

With `COc1cc([C@H]2Oc3c(OC)cc(/C=C/C(=O)O)cc3[C@@H]2C(=O)O)ccc1O`, the EC50 is 120 µM and the half-maximal inhibitory concentration (IC50) was above 200 µM.

For `CS(=O)(=O)NNS(=O)(=O)c1ccc(Cl)cc1`, the EC50 is above 126 µM and the IC50 was above 126 µM.

`Cc1cc(Cl)cc2c1NC(=O)C2(O)CC(=O)c1ccc(F)cc1` (stereo unspecified): the EC50 was above 15.5 µM and the IC50 was above 15.5 µM.

As for `Cc1cc(NS(=O)(=O)c2ccc(N)cc2)no1`, the EC50 is above 200 µM and the half-inhibitory concentration (IC50) is above 200 µM.

With `COc1cc(/C=C2/N=C(c3ccccc3)N(C3=NNC4(C(=O)N3)c3ccccc3-c3ccccc34)NC2=O)ccc1O`, the EC50 was above 100 µM and the IC50 stood at 75.9 µM.

Regarding `CNC1=CC(=O)C2=C(C1=O)[C@H]1CC[C@]3(C)C(=O)CC[C@H]3[C@@H]1CC2`, the EC50 was above 200 µM and the IC50 was 30.2 µM.

On to `C/C(=N/c1[nH]c(=O)cc2c1C(=O)CC2)N(C)C`, for which the EC50 was above 200 µM and the IC50 was above 200 µM.

As to `COc1cc2c(cc1OC)C(=O)/C(=C/c1cc(OC)c(OC)c(OC)c1)C2`, the EC50 is above 200 µM and the half-inhibitory concentration (IC50) turned out to be 162 µM.

As to `O=c1n(-c2ccccc2)c(=O)n2n1C1C3C4C5C1C5C2C43` (stereo unspecified), the EC50 was above 200 µM and the 50% inhibitory concentration (IC50) was above 200 µM.

Consider `O=c1oc2cc(O)ccc2c(O)c1C(c1ccccc1F)c1c(O)c2ccc(O)cc2oc1=O`, for which the outcome was inactive.

Consider `COc1cc(C(=O)C/C(CCCC(=O)Nc2ccccc2[N+](=O)[O-])=N/NC(=O)c2cc3ccccc3cc2O)ccc1O`, for which the EC50 was above 32.4 µM and the 50% inhibitory concentration (IC50) was 27.5 µM.

In the case of `CSC(SC)=C(C#N)C(=O)Nc1cccc(Cl)c1`, the EC50 was above 200 µM and the half-maximal inhibitory concentration (IC50) turned out to be 30.2 µM.

For `CC(C)=CC(=O)CC(=O)C(=O)Nc1ccc(Cl)c(Cl)c1`, the EC50 was above 417 µM and the IC50 was above 417 µM.

For the compound `c1ccc2c(c1)n1nnnc1c1nnnn21`, the EC50 was above 33.9 µM and the IC50 was above 33.9 µM.

For `O=C(NCCCOC(=O)CCCCCCCCC(=O)OCCCNC(=O)NC(=O)c1c[nH]c(=O)[nH]c1=O)NC(=O)c1c[nH]c(=O)[nH]c1=O`, the EC50 was 214 µM and the 50% inhibitory concentration (IC50) came to 263 µM.

Consider `COc1c2c(c(OC)c3c1C(=O)c1ccccc1C3=O)C(=O)CCC2`, for which the EC50 was above 8.13 µM and the half-inhibitory concentration (IC50) was above 8.13 µM.

Consider `CCOc1ccc(C2=C(Cl)c3cc(OC)c(OC)cc3C2Cl)cc1` (stereo unspecified), for which the result was inactive.

In the case of `CCOC1N(C2C=CC(CO)O2)C(=O)NC(=O)C1(C)Br` (stereo unspecified), the EC50 is above 13.5 µM and the IC50 is above 13.5 µM.

Turning to `COc1ccc(Nc2nc(NS(=O)(=O)c3cc(C)c(Cl)cc3S)n[nH]2)cc1`, the 50% effective concentration (EC50) is 178 µM and the IC50 amounted to 257 µM.

Turning to `CCCc1cc(=O)oc2c3c(cc(OC(C)C)c12)O[C@H](C)[C@@H](C)[C@H]3O`, the EC50 is above 200 µM and the IC50 stood at 12 µM.

As for `CC(C)CCCC(C)C1CCC2C3CCC4CC5(CCC4(C)C3CCC12C)NCCCS5` (stereo unspecified), the EC50 was above 1.58 µM and the IC50 was above 1.58 µM.

For `CC1(C)O[C@H]2Cn3c(c(C#N)c4ccccc43)[C@H]2O1`, the EC50 is above 200 µM and the half-inhibitory concentration (IC50) turned out to be 178 µM.

Consider `CC(=O)OC1CCN(C)CC1CCl` (stereo unspecified), for which the EC50 was above 200 µM and the IC50 was above 200 µM.

Regarding `O=C1C=C/C(=N\N=C(c2ccccc2)c2ccccc2)O1`, the EC50 is above 200 µM and the IC50 was 145 µM.

Consider `CC1(C)C(=O)N2CCSC21` (stereo unspecified), for which the EC50 is above 16.6 µM and the IC50 is above 16.6 µM.

Consider `CC(=S)N(c1ccccc1)c1ccccc1`, for which the EC50 was above 200 µM and the IC50 came out at 158 µM.

`N#CCCn1[nH]c(=O)c(Cl)c(Cl)c1=O`: the EC50 is above 1070 µM and the 50% inhibitory concentration (IC50) turned out to be 5.62 µM.

Take `CC1SC(=O)SC1C` (stereo unspecified): the EC50 is above 1700 µM and the IC50 was above 1700 µM.

On to `N=C(N)n1[nH]c2c(c1=O)CCCC2`, for which the EC50 was above 200 µM and the half-maximal inhibitory concentration (IC50) is above 200 µM.

With `C[N+](C)(CCNc1ccc(NCC[N+](C)(C)Cc2ccc([N+](=O)[O-])cc2)c2c1C(=O)c1ccccc1C2=O)Cc1ccc([N+](=O)[O-])cc1`, the EC50 was above 151 µM and the IC50 was above 151 µM.

As to `Cc1ccc(NC(=O)C(=O)CC(=O)c2ccccc2)cc1C`, the EC50 was above 4.9 µM and the IC50 was above 4.9 µM.

As to `CC1=NS(=O)(=O)c2cc(Cl)ccc2N1`, the EC50 was above 562 µM; the half-maximal inhibitory concentration (IC50) was > 407 µM and 537 µM.

Regarding `Cc1ccc(/C=c2\c(=O)[nH]c3nc4ccccc4c(=O)n23)cc1`, the EC50 was above 200 µM and the 50% inhibitory concentration (IC50) came out at 22.4 µM.

On to `Cc1cc2ccc([N+](=O)[O-])cn2c1`, for which the EC50 was above 200 µM and the half-maximal inhibitory concentration (IC50) turned out to be 115 µM.

As for `O=c1c(Cl)c(N2CCCCC2)cnn1-c1ccccc1`, the EC50 is above 174 µM and the IC50 is above 174 µM.

For `Cc1ccc(NC(=S)SCCC(=O)O)cc1`, the result was inactive.

As for `CCOC(=O)/C=C/[C@H](O[Si](CC)(CC)CC)C(C)(C)C`, the EC50 was above 200 µM and the IC50 is above 200 µM.

Consider `COC(=O)c1cc(C(=O)OC)c(C/C(=N/Nc2ccc([N+](=O)[O-])cc2[N+](=O)[O-])C(=O)Nc2cccc(C(F)(F)F)c2)nc1C/C(=N/Nc1ccc([N+](=O)[O-])cc1[N+](=O)[O-])C(=O)Nc1cccc(C(F)(F)F)c1`, for which the EC50 is above 200 µM and the half-inhibitory concentration (IC50) stood at 70.8 µM.

On to `CC1=NN(c2ccccc2)C(=O)C1=C1SCCS1`, for which the EC50 is above 182 µM and the concentration for half-maximal inhibition (IC50) is above 182 µM.

As to `CC(C)CCC[C@@H](C)C1CCC2C3CCC4C[C@@](O)(C(c5cc(Cl)c(O)c(C(=O)O)c5)c5cc(Cl)c(O)c(C(=O)O)c5)CC[C@]4(C)C3CC[C@@]21C` (stereo partly specified), the EC50 was above 200 µM and the IC50 turned out to be 25.1 µM.

Turning to `O=C(Nc1ccc(/C=C\c2ccc(NC(=O)c3ccc4ccccc4c3O)cc2S(=O)(=O)O)c(S(=O)(=O)O)c1)c1ccc2ccccc2c1O`, the 50% effective concentration (EC50) is 126 µM and the concentration for half-maximal inhibition (IC50) is above 200 µM.

With `CCC(=O)c1ccc2[nH]c3c(C)c4c(=O)cc(C)[nH]c4c(C)c3c2c1`, the EC50 is above 100 µM and the 50% inhibitory concentration (IC50) is above 100 µM.
